Data as given in ChEMBL document CHEMBL3046182, “Development of a rapid resistance monitoring bioassay for codling moth larvae” (2012).
In brackets after ≈: the same amount, converted by molar mass.

Assays:
Assay type in all cases: functional
Cydia pomonella [1] = test: Insecticidal activity against po dosed Cydia pomonella (codling moth) lab-s neonate measured after 4 days
Cydia pomonella [2] = test: Insecticidal activity against po dosed fourth-instar larvae of Cydia pomonella (codling moth) lab-s measured after 4 days
Cydia pomonella [3] = test: Insecticidal activity against Cydia pomonella (codling moth) lab-s neonate compound applied topically measured after 4 days; settings: topical, 96 h
Cydia pomonella [4] = test: Insecticidal activity against fourth-instar larvae of Cydia pomonella (codling moth) lab-s compound applied topically measured after 4 days; settings: topical, 96 h
Cydia pomonella [5] = test: Insecticidal activity against po dosed 10 day-old larvae of Chlorantraniliprole-selected Cydia pomonella (codling moth) reared on apple assessed as mortality measured after 4 days
Cydia pomonella [6] = test: Insecticidal activity against po dosed 10 day-old larvae of Cydia pomonella (codling moth) Gilbert reared on apple assessed as mortality measured after 4 days
Cydia pomonella [7] = test: Insecticidal activity against po dosed 10 day-old larvae of Cydia pomonella (codling moth) Owensby reared on apple assessed as mortality measured after 4 days
Cydia pomonella [8] = test: Insecticidal activity against po dosed fourth-instar larvae of Cydia pomonella (codling moth) Holt measured after 4 days
Cydia pomonella [9] = test: Insecticidal activity against po dosed fourth-instar larvae of Cydia pomonella (codling moth) Gilbert measured after 4 days
Cydia pomonella [10] = test: Insecticidal activity against po dosed 10 day-old larvae of Cydia pomonella (codling moth) lab-s measured after 4 days
Cydia pomonella [11] = test: Resistant ratio of LC50 for fourth-instar larvae of Cydia pomonella (codling moth) Holt to fourth-instar larvae of Cydia pomonella (codling moth) Glibert
Cydia pomonella [12] = test: Insecticidal activity against po dosed 11 day-old larvae of spinetoram-selected Cydia pomonella (codling moth) reared on apple assessed as mortality measured after 4 days
Cydia pomonella [13] = test: Resistant ratio of LC50 for fourth-instar larvae of Cydia pomonella (codling moth) lab-s to fourth-instar larvae of Cydia pomonella (codling moth) Glibert
Cydia pomonella [14] = test: Insecticidal activity against po dosed 15 day-old larvae of Cydia pomonella (codling moth) reared on apple assessed as mortality measured after 4 days
Cydia pomonella [15] = test: Insecticidal activity against po dosed 15 day-old larvae of Cydia pomonella (codling moth) lab-s reared on apple assessed as mortality measured after 4 days
Cydia pomonella [16] = test: Insecticidal activity against po dosed 10 day-old larvae of Cydia pomonella (codling moth) lab-s reared on apple assessed as mortality measured after 4 days
Cydia pomonella [17] = test: Insecticidal activity against po dosed Cydia pomonella (codling moth) Holt neonate measured after 4 days
Cydia pomonella [18] = test: Insecticidal activity against po dosed Cydia pomonella (codling moth) Gilbert neonate measured after 4 days
Cydia pomonella [19] = test: Insecticidal activity against po dosed 20 day-old larvae of Cydia pomonella (codling moth) reared on apple assessed as mortality measured after 4 days
Cydia pomonella [20] = test: Resistant ratio of LC50 for Cydia pomonella (codling moth) Holt neonate to Cydia pomonella (codling moth) Glibert neonate
Cydia pomonella [21] = test: Insecticidal activity against po dosed fourth-instar larvae of Cydia pomonella (codling moth) Clear Creek abandoned measured after 4 days
Cydia pomonella [22] = test: Resistant ratio of LC50 for Cydia pomonella (codling moth) lab-s neonate to Cydia pomonella (codling moth) Glibert neonate
Cydia pomonella [23] = test: Insecticidal activity against po dosed Cydia pomonella (codling moth) Clear Creek abandoned neonate measured after 4 days

For `CCO[C@@H]1[C@@H](OC)[C@H](C)O[C@@H](O[C@@H]2C[C@H]3CC[C@@H]4[C@@H](C=C5C(=O)[C@H](C)[C@@H](O[C@H]6CC[C@H](N(C)C)[C@@H](C)O6)CCC[C@H](CC)OC(=O)C[C@H]54)[C@@H]3C2)[C@@H]1OC.CCO[C@@H]1[C@@H](OC)[C@H](C)O[C@@H](O[C@H]2C[C@H]3[C@@H]4C=C5C(=O)[C@H](C)[C@@H](O[C@H]6CC[C@H](N(C)C)[C@@H](C)O6)CCC[C@H](CC)OC(=O)C[C@H]5[C@@H]4C=C(C)[C@@H]3C2)[C@@H]1OC`, the LC50 (Cydia pomonella [1]) was 0.09 µg/mL and the LC50 (Cydia pomonella [2]) was 0.16 µg/mL.

Compound `C/C(=N\C#N)N(C)Cc1ccc(Cl)nc1` [ACETAMIPRID] has an LC50 (Cydia pomonella [3]) of 0.26 µg/mL (≈ 1.17 µM) and an LC50 (Cydia pomonella [4]) of 1.12 µg/mL (≈ 5.03 µM).

`CNC(=O)c1cc(Cl)cc(C)c1NC(=O)c1cc(Br)nn1-c1ncccc1Cl` [CHLORANTRANILIPROLE] showed an LC50 (Cydia pomonella [1]) of 0.2 µg/mL (≈ 0.414 µM) and an LC50 (Cydia pomonella [2]) of 0.19 µg/mL (≈ 0.393 µM).

`COc1cccc(C(=O)NN(C(=O)c2cc(C)cc(C)c2)C(C)(C)C)c1C` [METHOXYFENOZIDE] gave a mortality (Cydia pomonella [5]) of 100%, an LC50 (Cydia pomonella [1]) of 1.2 µg/mL (≈ 3.26 µM) and an LC99 (Cydia pomonella [1]) of 14.15 µg/mL. The mortality (Cydia pomonella [6]) was 93.6%, the mortality (Cydia pomonella [7]) was 31.3% and the LC50 (Cydia pomonella [8]) was 38.7 µg/mL (≈ 105 µM). The LC99 (Cydia pomonella [8]) was 5061.9 µg/mL, the LC50 (Cydia pomonella [9]) was 15.2 µg/mL (≈ 41.3 µM) and the LC99 (Cydia pomonella [9]) was 202 µg/mL. For the same compound, the LC95 (Cydia pomonella [10]) was 10 µg/mL (≈ 27.1 µM), the RatioLC50 (Cydia pomonella [11]) was 16.7 and the mortality (Cydia pomonella [12]) was 83.3%. It also gave a RatioLC50 (Cydia pomonella [13]) of 6.6, a mortality (Cydia pomonella [14]) of 55.1% and a mortality (Cydia pomonella [15]) of 98.4%. The mortality (Cydia pomonella [16]) was 99.2%, the LC50 (Cydia pomonella [17]) was 28.5 µg/mL (≈ 77.3 µM) and the LC99 (Cydia pomonella [17]) was 5320.8 µg/mL. The LC50 (Cydia pomonella [18]) was 9.5 µg/mL (≈ 25.8 µM), the LC99 (Cydia pomonella [18]) was 389.4 µg/mL and the mortality (Cydia pomonella [19]) was 50%. It also gave a RatioLC50 (Cydia pomonella [20]) of 24, an LC50 (Cydia pomonella [21]) of 1.35 µg/mL (≈ 3.66 µM) and an LC99 (Cydia pomonella [21]) of 28.38 µg/mL. It also gave an LC50 (Cydia pomonella [2]) of 2.3 µg/mL (≈ 6.24 µM), an LC99 (Cydia pomonella [2]) of 18.27 µg/mL and a RatioLC50 (Cydia pomonella [22]) of 8. It also gave an LC50 (Cydia pomonella [23]) of 95 µg/mL (≈ 258 µM) and an LC99 (Cydia pomonella [23]) of 14.57 µg/mL.

`O=C(NC(=O)c1c(F)cccc1F)Nc1ccc(OC(F)(F)C(F)OC(F)(F)F)c(Cl)c1` (configuration not stated) [NOVALURON] was tested, and the LC50 (Cydia pomonella [1]) was 1.08 µg/mL (≈ 2.19 µM) and the LC50 (Cydia pomonella [2]) was 1.16 µg/mL (≈ 2.35 µM).
